Laboratory results published in US20220362253A1, “NOVEL PHARMACEUTICAL FORMULATION” (GLAXOSMITHKLINE INTELLECTUAL PROPERTY DEVELOPMENT LIMITED, priority 2018, published 2022).
Converted amounts (≈) assume the structure as drawn. “And” between values parts separate entries of the source, which are not always exact repeats. Equal entries are not always repeated.

Assays:
[1] = Solubility screening up to 5 mg/mL at RT in aqueous acid media (Examples 1 to 6); format: physicochemical; conditions: free base; for solubility at 24 h: thermodynamic from solid, read-out: Drug Solubility
Protocol: Solubility of Compound A was conducted by adding a known quantity of drug to specific volume of aqueous media followed by 24 hour agitation at room temperature (RT).

[2] = Solubility in 20 mM acetic, citric and L-aspartic aqueous media as a function of pH (Example 14); format: physicochemical
[3] = Aqueous solubility with glutamic acid and glucuronic acid (Example 15); format: physicochemical; conditions: aqueous buffer, thermodynamic from solid, adjusted pH 4.1, filtered supernatant
Description: Aqueous solubility of Compound A with glutamic acid and glucuronic acid were explored in Example 15.

[4] = pHmax / Ksp determination with L-aspartic acid (Example 16); format: physicochemical; conditions: for solubility: L-aspartic acid solution, thermodynamic from solid, >110 hr stirring at RT, read-out: Drug Solubility; for solubility / pH max: L-aspartic acid; for pH max: pHmax = pKa + log (S0/√Ksp)
Protocol: Compound A solubility was separately determined by controlling the mole ratio of L-aspartic acid relative to drug in Example 16. The concentrations of drug and counterion were measured in supernatant to calculate Ksp (Solubility product) (Table 5).

Stated bioavailability = conditions: oral
[5] = Solubility screening up to 2 mg/mL at RT in aqueous acid media (Examples 7 to 13); format: physicochemical; conditions: target up to 2 mg/mL; for solubility at 24 h: thermodynamic from solid, read-out: Drug Solubility
cynomolgus monkeys = experiment: Injection site reactions after repeat IV bolus dosing (Example 17); format: in vivo, cynomolgus monkey; conditions: weekly IV bolus into antecubital vein then saline flush, 30 mM L-aspartic acid, 3.7% mannitol, pH approximately 3.0, non-stoichiometric hydrate form
Protocol: In vivo studies were conducted in cynomolgus monkeys administered IV doses of Compound A in a vehicle of 30 mM L-aspartic acid, 3.7% mannitol in Sterile Water for Injection, pH approximately 3.0. For these studies, Compound A was used in a non-stoichiometric hydrate form according to Table 6.

[6] = Stated physical properties: water solubility, hygroscopicity; format: physicochemical

## CCn1nc(C)cc1C(=O)Nc1nc2cc(C(N)=O)cc(OC)c2n1C/C=C/Cn1c(NC(=O)c2cc(C)nn2CC)nc2cc(C(N)=O)cc(OCCCN3CCOCC3)c21 [Compound A, (E)-1-(4-(5-Carbamoyl-2-(1-ethyl-3-methyl-1H-pyrazole-5-carboxamido)-7-(3-morpholinopropoxy)-1H-benzo[d]imidazol-1-yl)but-2-en-1-yl)-2-(1-ethyl-3-methyl-1H-pyrazole-5-carboxamido)-7-methoxy-1H-benzo[d]imidazole-5-carboxamide]
[1]; 9.5 mM Lactic acid, solution pH 3.83, stirred 24 h at RT
  Drug Solubility: 3.59 mg/mL
[1]; 9.5 mM lactic acid aqueous medium, pH 3.83, aqueous buffer, 9.5 mM Lactic acid, solution pH 3.83, stirred 24 h at RT
  solubility at 24 h: > 3.5 mg/mL
[1]; 50 mM Citric acid, solution pH 2.30, stirred 24 h at RT
  Drug Solubility: 1.32 mg/mL
[1]; 50 mM citric acid aqueous medium, pH 2.3, aqueous buffer, 50 mM Citric acid, solution pH 2.30, stirred 24 h at RT
  solubility at 24 h: < 2 mg/mL
[1]; 72.8 mM Methane sulfonic acid, solution pH 1.27, stirred 24 h at RT
  Drug Solubility: 3.85 mg/mL
[1]; 72.8 mM methane sulfonic acid aqueous medium, pH 1.27, aqueous buffer, 72.8 mM Methane sulfonic acid, solution pH 1.27, stirred 24 h at RT
  solubility at 24 h: > 3.5 mg/mL
[1]; 170 mM Acetic acid, solution pH 3.16, stirred 24 h at RT
  Drug Solubility: 4.05 mg/mL
[1]; 170 mM acetic acid aqueous medium, pH 3.16, aqueous buffer, 170 mM Acetic acid, solution pH 3.16, stirred 24 h at RT
  solubility at 24 h: > 3.5 mg/mL
[2]; 20 mM L-aspartic acid aqueous media, 22 °C, aqueous buffer, thermodynamic from solid, 20 mM L-aspartic acid media, pH 6.14, 22 ± 1° C., Compound A in excess, read-out: Solubility
  solubility: 0.0007 mg/mL (≈ 0.824 µM)
[2]; 20 mM L-aspartic acid aqueous media, 22 °C, aqueous buffer, thermodynamic from solid, 20 mM L-aspartic acid media, pH 7.97, 22 ± 1° C., Compound A in excess, read-out: Solubility
  solubility: 0.0005 mg/mL (≈ 0.588 µM)
[2]; 20 mM L-aspartic acid aqueous media, 22 °C, aqueous buffer, thermodynamic from solid, 20 mM L-aspartic acid media, pH 8.87, 22 ± 1° C., Compound A in excess, read-out: Solubility
  solubility: 0.0009 mg/mL (≈ 1.06 µM)
[2]; 20 mM L-aspartic acid aqueous medium, aqueous buffer, Aspartic acid, at pH<3, read-out: Highest solubility
  solubility: 4 mg/mL (≈ 4710 µM)
[2]; 20 mM acetic acid aqueous media, 22 °C, aqueous buffer, thermodynamic from solid, 20 mM acetic acid media, pH 6.42, 22 ± 1° C., Compound A in excess, read-out: Solubility
  solubility: 0.0005 mg/mL (≈ 0.588 µM)
[2]; 20 mM acetic acid aqueous media, 22 °C, aqueous buffer, thermodynamic from solid, 20 mM acetic acid media, pH 9.84, 22 ± 1° C., Compound A in excess, read-out: Solubility
  solubility: 0.0005 mg/mL (≈ 0.588 µM)
[2]; 20 mM acetic, citric or L-aspartic acid aqueous media, aqueous buffer, at pH 4.0, any of the counter ions (L-aspartic, acetic, citric acid), read-out: Solubility
  solubility: ≤ 0.5 mg/mL
[2]; 20 mM citric acid aqueous media, 22 °C, aqueous buffer, thermodynamic from solid, 20 mM citric acid media, pH 6.92, 22 ± 1° C., Compound A in excess, read-out: Solubility
  solubility: 0.0005 mg/mL (≈ 0.588 µM)
[2]; 20 mM citric acid aqueous media, 22 °C, aqueous buffer, thermodynamic from solid, 20 mM citric acid media, pH 8.82, 22 ± 1° C., Compound A in excess, read-out: Solubility
  solubility: 0.0005 mg/mL (≈ 0.588 µM)
[2]; 22 °C, aqueous buffer, thermodynamic from solid, 20 mM L-aspartic acid media, pH 3.05, 22 ± 1° C., Compound A in excess, read-out: Solubility
  solubility: 5.27 mg/mL (≈ 6200 µM)
[2]; 22 °C, aqueous buffer, thermodynamic from solid, 20 mM L-aspartic acid media, pH 3.23, 22 ± 1° C., Compound A in excess, read-out: Solubility
  solubility: 3.97 mg/mL (≈ 4670 µM)
[2]; 22 °C, aqueous buffer, thermodynamic from solid, 20 mM L-aspartic acid media, pH 3.76, 22 ± 1° C., Compound A in excess, read-out: Solubility
  solubility: 0.472 mg/mL (≈ 555 µM)
[2]; 22 °C, aqueous buffer, thermodynamic from solid, 20 mM L-aspartic acid media, pH 3.96, 22 ± 1° C., Compound A in excess, read-out: Solubility
  solubility: 0.227 mg/mL (≈ 267 µM)
[2]; 22 °C, aqueous buffer, thermodynamic from solid, 20 mM L-aspartic acid media, pH 4.18, 22 ± 1° C., Compound A in excess, read-out: Solubility
  solubility: 0.0687 mg/mL (≈ 80.8 µM)
[2]; 22 °C, aqueous buffer, thermodynamic from solid, 20 mM L-aspartic acid media, pH 4.54, 22 ± 1° C., Compound A in excess, read-out: Solubility
  solubility: 0.0167 mg/mL (≈ 19.6 µM)
[2]; 22 °C, aqueous buffer, thermodynamic from solid, 20 mM L-aspartic acid media, pH 4.93, 22 ± 1° C., Compound A in excess, read-out: Solubility
  solubility: 0.005 mg/mL (≈ 5.88 µM)
[2]; 22 °C, aqueous buffer, thermodynamic from solid, 20 mM acetic acid media, pH 3.26, 22 ± 1° C., Compound A in excess, read-out: Solubility
  solubility: 1.76 mg/mL (≈ 2070 µM)
[2]; 22 °C, aqueous buffer, thermodynamic from solid, 20 mM acetic acid media, pH 3.58, 22 ± 1° C., Compound A in excess, read-out: Solubility
  solubility: 1.09 mg/mL (≈ 1280 µM)
[2]; 22 °C, aqueous buffer, thermodynamic from solid, 20 mM acetic acid media, pH 3.71, 22 ± 1° C., Compound A in excess, read-out: Solubility
  solubility: 0.81 mg/mL (≈ 953 µM)
[2]; 22 °C, aqueous buffer, thermodynamic from solid, 20 mM acetic acid media, pH 3.91, 22 ± 1° C., Compound A in excess, read-out: Solubility
  solubility: 0.396 mg/mL (≈ 466 µM)
[2]; 22 °C, aqueous buffer, thermodynamic from solid, 20 mM acetic acid media, pH 4.09, 22 ± 1° C., Compound A in excess, read-out: Solubility
  solubility: 0.269 mg/mL (≈ 316 µM)
[2]; 22 °C, aqueous buffer, thermodynamic from solid, 20 mM acetic acid media, pH 4.64, 22 ± 1° C., Compound A in excess, read-out: Solubility
  solubility: 0.0241 mg/mL (≈ 28.4 µM)
[2]; 22 °C, aqueous buffer, thermodynamic from solid, 20 mM acetic acid media, pH 4.85, 22 ± 1° C., Compound A in excess, read-out: Solubility
  solubility: 0.0108 mg/mL (≈ 12.7 µM)
[2]; 22 °C, aqueous buffer, thermodynamic from solid, 20 mM acetic acid media, pH 5.48, 22 ± 1° C., Compound A in excess, read-out: Solubility
  solubility: 0.0029 mg/mL (≈ 3.41 µM)
[2]; 22 °C, aqueous buffer, thermodynamic from solid, 20 mM citric acid media, pH 2.47, 22 ± 1° C., Compound A in excess, read-out: Solubility
  solubility: 0.456 mg/mL (≈ 536 µM)
[2]; 22 °C, aqueous buffer, thermodynamic from solid, 20 mM citric acid media, pH 2.61, 22 ± 1° C., Compound A in excess, read-out: Solubility
  solubility: 0.195 mg/mL (≈ 229 µM)
[2]; 22 °C, aqueous buffer, thermodynamic from solid, 20 mM citric acid media, pH 2.74, 22 ± 1° C., Compound A in excess, read-out: Solubility
  solubility: 0.0816 mg/mL (≈ 96 µM)
[2]; 22 °C, aqueous buffer, thermodynamic from solid, 20 mM citric acid media, pH 3.98, 22 ± 1° C., Compound A in excess, read-out: Solubility
  solubility: 0.0054 mg/mL (≈ 6.35 µM)
[2]; 22 °C, aqueous buffer, thermodynamic from solid, 20 mM citric acid media, pH 4.94, 22 ± 1° C., Compound A in excess, read-out: Solubility
  solubility: 0.004 mg/mL (≈ 4.71 µM)
[2]; 22 °C, aqueous buffer, thermodynamic from solid, 20 mM citric acid media, pH 5.91, 22 ± 1° C., Compound A in excess, read-out: Solubility
  solubility: 0.0013 mg/mL (≈ 1.53 µM)
[2]; 22 °C, pH 2.9, aqueous buffer, thermodynamic from solid, 20 mM citric acid media, pH 2.90, 22 ± 1° C., Compound A in excess, read-out: Solubility
  solubility: 0.0415 mg/mL (≈ 48.8 µM)
[2]; 22 °C, pH 3.4, aqueous buffer, thermodynamic from solid, 20 mM citric acid media, pH 3.40, 22 ± 1° C., Compound A in excess, read-out: Solubility
  solubility: 0.0083 mg/mL (≈ 9.77 µM)
[3]; aqueous glucuronic acid (1 mol eq), Glucuronic acid (1 mol eq)
  solubility: 9 mg/mL (≈ 10600 µM)
[3]; aqueous glutamic acid (1 mol eq), Glutamic acid (1 mol eq)
  solubility: 4.5 mg/mL (≈ 5290 µM)
[4]; counterion conc. 8.45 mM
  solubility: 4070 µg/mL and 4790 µM
  pH max: 3.57
[4]; counterion conc. 8.70 mM
  solubility: 3950 µg/mL and 4640 µM
  pH max: 3.57
[4]; counterion conc. 9.18 mM
  solubility: 3940 µg/mL and 4640 µM
  pH max: 3.56
[4]; counterion conc. 9.33 mM
  solubility: 4140 µg/mL and 4880 µM
  pH max: 3.54
[4]; in L-aspartic acid media, from the Ksp measurements in Table 5
  pHmax: 3.5-3.6
[4]; value used for the pHmax calculation, read-out: pKa of drug
  pKa: 7
Stated bioavailability
  bioavailability: poor oral bioavailability
[5]; 10 mM Acetic acid, solution pH 3.33, stirred 24 h
  Drug Solubility: 1.45 mg/mL
[5]; 10 mM Methane sulfonic acid, solution pH 1.99, stirred 24 h
  Drug Solubility: 1.78 mg/mL
[5]; 10 mM acetic acid aqueous medium, pH 3.33, aqueous buffer, 10 mM Acetic acid, solution pH 3.33, stirred 24 h
  solubility at 24 h: > 1 mg/mL
[5]; 10 mM methane sulfonic acid aqueous medium, pH 1.99, aqueous buffer, 10 mM Methane sulfonic acid, solution pH 1.99, stirred 24 h
  solubility at 24 h: > 1 mg/mL
[5]; 25 mM Aspartic acid, solution pH 2.95, stirred 24 h
  Drug Solubility: 1.80 mg/mL
[5]; 25 mM Citric acid, solution pH 2.32, stirred 24 h
  Drug Solubility: 1.81 mg/mL
[5]; 25 mM Lactic acid, solution pH 2.57, stirred 24 h
  Drug Solubility: 1.83 mg/mL
[5]; 25 mM Tartaric acid, solution pH 2.33, stirred 24 h
  Drug Solubility: 0.80 mg/mL
[5]; 25 mM aspartic acid aqueous medium, pH 2.95, aqueous buffer, 25 mM Aspartic acid, solution pH 2.95, stirred 24 h
  solubility at 24 h: > 1 mg/mL
[5]; 25 mM citric acid aqueous medium, pH 2.32, aqueous buffer, 25 mM Citric acid, solution pH 2.32, stirred 24 h
  solubility at 24 h: > 1 mg/mL
[5]; 25 mM lactic acid aqueous medium, pH 2.57, aqueous buffer, 25 mM Lactic acid, solution pH 2.57, stirred 24 h
  solubility at 24 h: > 1 mg/mL
[5]; 25 mM tartaric acid aqueous medium, pH 2.33, aqueous buffer, 25 mM Tartaric acid, solution pH 2.33, stirred 24 h
  solubility at 24 h: < 1 mg/mL
Cynomolgus monkeys
  Injection site reactions: no Compound A-related injection site reactions were observed
[6]
  solubility: < 0.01 mg/mL
